Entries after “also recorded” stand apart in the source; their conditions may differ. Read-outs that look alike come from different tables or passages of the source.
Legend:
[1] = Pharmacokinetics in healthy volunteers with repeated weekly administration; format: in vivo, human; details: for Cmax / concentration at 168 h: human, in vivo, oral; for Cmax: read-out: Cmax of active metabolite Ia in the first week; for concentration at 168 h: read-out: concentration of active metabolite Ia a week later (168 hours)
[2] = Clinical trial in healthy volunteers, pharmacokinetics with daily administration of capsules; details: constant administration, average
Description: The concentration-time pattern of metabolite Ia in the blood was evaluated by its content in the plasma and blood cells.

HIV-1 = test: Efficacy, safety and optimal dosage study in previously untreated HIV-1-infected patients versus Efavirenz; details: for development of HIV-1 resistance: patients, at the studied doses; for viral load decrease: week 12; for viral load decrease / viral load change: 20 mg MMSCs of formula Ib, 600 mg Efavirenz; for viral load change: week 24
Description: Doses of 20 mg/day (60 patients) and 40 mg/day (60 patients) of MMSCs of formula Ib were studied versus 600 mg/day of Efavirenz (30 patients).
Doses of 20.7 mg/day (60 patients) and 41.4 mg/day (60 patients) of MMSCs of formula Ib were studied in comparison with Efavirenz (600 mg/day, 30 patients).

time to maximum concentration of active metabolite Ia in the first week ([1]; 41.4, 82.8 or 124.2 mg/week, after taking the drug) | Cmax ([1]; 41.4 mg/week) [ng/mL] | concentration at 168 h ([1]; 41.4 mg/week) [ng/mL] | Cmax ([1]; 82.8 mg/week) [ng/mL] | concentration at 168 h ([1]; 82.8 mg/week) [ng/mL] | Cmax ([1]; 124.2 mg/week) [ng/mL] | concentration at 168 h ([1]; 124.2 mg/week) [ng/mL] | time of dosing to maximum plasma concentration of active metabolite Ia ([2]; 10 mg/day) [days] | time of dosing to maximum plasma concentration of active metabolite Ia ([2]; 20 mg/day) [days] | time of dosing to maximum plasma concentration of active metabolite Ia ([2]; 30 mg/day) [days] | Structure (SMILES) | occurrence of a viral load reduction of 10 times and more (HIV-1; 20 mg versus Efavirenz 600 mg, p=0.053) | efficacy difference between the MMSCs of formula Ib therapy groups (HIV-1; 20 versus 40 mg/day groups, p=0.804) | serious adverse events (HIV-1; HIV-1-infected patients) | effectiveness in reducing the viral load to <400 copies/ml (HIV-1; doses of 20 and 40 mg, over a period of 12 weeks, versus Efavirenz 600 mg/day) | advantage of the 20 mg group over the Efavirenz 600 mg group (HIV-1; p=0.0237) | development of HIV-1 resistance (HIV-1) | viral load decrease (HIV-1) | viral load change (HIV-1) | frequency of achieving an undetectable HIV-1 RNA level (HIV-1; week 36, versus Efavirenz, p=0.408)
approximately 5.5 hours | 34.5 | 26.1 | 63.6 | 36.9 | 117 | 57.2 | 9.8 | 7.5 | 6.7 | N#Cc1cc(Cl)cc(Oc2c(Br)ccc(CC(=O)Nc3ccc(S(N)(=O)=O)cc3Cl)c2F)c1 [Ia] | – | – | – | – | – | – | – | – | –
– | – | – | – | – | – | – | – | – | – | CCC(=O)[N-]S(=O)(=O)c1ccc(NC(=O)Cc2ccc(Br)c(Oc3cc(Cl)cc(C#N)c3)c2F)c(Cl)c1.[Na+] [MMSCs of formula Ib, sodium {[4-({[4-bromo-3-(3-chloro-5-cyanophenoxy)-2-fluorophenyl]acetyl}amino)-3-chlorophenyl]-sulfonyl}(propanoyl)azanide] | tendency for a statistical difference | did not differ in effectiveness; also recorded: did not differ in efficacy | No serious adverse events were observed | not inferior to Efavirenz | statistically significant | No development of HIV-1 resistance was established; also recorded: has not been established | −2.8±0.7 | −3.3±0.7 | did not statistically differ; also recorded: did not differ statistically
– | – | – | – | – | – | – | – | – | – | O=C1Nc2ccc(Cl)cc2[C@@](C#CC2CC2)(C(F)(F)F)O1 [Efavirenz, reference compound] | – | – | – | – | – | No development of HIV-1 resistance was established; also recorded: has not been established | −2.7±1.0 | −3.3±0.8 | –

— US20220096421A1, “Active Ingredient, Pharmaceutical Composition, and Medicinal Product for HIV and AIDS Therapy” (priority 2019, published 2022)
